Test results published in patent publication US4312874A, “Antibacterial compounds, processes for their preparation and compositions containing them” (Beecham Group Limited, priority 1979, dated 1982).
Values after ≈ are worked out from the molar mass of the structure shown.

Assays:
Strep. faecalis = assay: MIC by serial dilution in nutrient agar with 5% chocolated horse blood; type: cell-based; settings: Enterococcus faecalis; Table 1; read-out: MIC
[1] = Serum binding by ultrafiltration; type: in vitro ADME; settings: pig, 8 mcg/ml, read-out: % Bound to Pig Serum (converted)
Procedure: Serum binding was assessed by ultrafiltration of procine serum containing compounds at 8 mcg/ml, and through an Amicon CF50A ultrafiltration cone. Separation of ultrafiltrate was achieved by centrifugation. Unbound concentrations of compound were measured in the ultrafiltrate by microbiological assay (B. subtilis ATCC 6633) against standards prepared in saline.

M. gallisepticum S6 = assay: in vitro MIC by serial dilution in Friis modified agarose medium; type: cell-based; settings: Mycoplasmoides gallisepticum, Table 3
Ps. aeruginosa 10662 = assay: MIC by serial dilution in nutrient agar with 5% chocolated horse blood; type: cell-based; settings: Pseudomonas aeruginosa, Table 1, read-out: MIC
[2] = tested on: M. bovigenitalium ATCC 14173; assay: in vitro MIC by serial dilution in Friis modified agarose medium; type: cell-based; settings: Table 3; read-out: MIC
E. coli E1 = assay: MIC by agar dilution, veterinary bacteria; settings: Escherichia coli, E1, 24 h
M. suipneumoniae MS 16 = assay: in vitro MIC by serial dilution in Friis modified agarose medium; type: cell-based; settings: Mesomycoplasma hyopneumoniae, MS16; Table 3
Bacillus subtilis 6633 = assay: MIC by serial dilution in nutrient agar with 5% chocolated horse blood; type: cell-based; settings: Table 1
[3] = tested on: Haemophilus influenzae Q1; assay: as above; type: cell-based; settings: Table 1
M. suipneumoniae LABER = assay: in vitro MIC by serial dilution in Friis modified agarose medium; type: cell-based; settings: Mesomycoplasma hyopneumoniae; Table 3
M. bovis NCTC 10131 = assay: microbe, parasite or virus in culture; type: cell-based; settings: NCTC10131
P. mirabilis 889 = assay: MIC by serial dilution in nutrient agar with 5% chocolated horse blood; type: cell-based; settings: Proteus mirabilis, Table 1, read-out: MIC
M. suipneumoniae TAM 6N = assay: in vitro MIC by serial dilution in Friis modified agarose medium; type: cell-based; settings: Mesomycoplasma hyopneumoniae, TAM6N; Table 3
K. aerogenes A = assay: MIC by serial dilution in nutrient agar with 5% chocolated horse blood; type: cell-based; settings: Klebsiella aerogenes; Table 1; read-out: MIC
M.suipneumoniae NB12 = assay: in vitro MIC by serial dilution in Friis modified agarose medium; type: cell-based; settings: Mesomycoplasma hyopneumoniae, Table 3
M. pneumoniae ATCC 15492 = assay: as above; type: cell-based; settings: Mycoplasmoides pneumoniae, ATCC15492; Table 3
[4] = tested on: Pasteurella multocida 1633; assay: MIC by serial dilution in nutrient agar with 5% chocolated horse blood; type: cell-based; settings: Table 1
[5] = tested on: M. suipneumoniae NCTC 10110; assay: in vitro MIC by serial dilution in Friis modified agarose medium; type: cell-based; settings: Mesomycoplasma hyopneumoniae, NCTC10110; Table 3
M. hyorhinis ATCC 23234 = assay: as above; type: cell-based; settings: Mesomycoplasma hyorhinis, ATCC23234; Table 3
[6] = tested on: Corynebacterium xerosis 9755; assay: MIC by serial dilution in nutrient agar with 5% chocolated horse blood; type: cell-based; settings: Table 1
[7] = tested on: Haemophilus influenzae Wy21; assay: as above; type: cell-based; settings: Table 1, read-out: MIC
[8] = tested on: Corynebacterium pyogenes CY1; assay: MIC by agar dilution, veterinary bacteria; settings: CY1, 24 h
Past. haemolytica PA5 = assay: MIC by agar dilution, veterinary bacteria; settings: Mannheimia haemolytica, PA5, 24 h
[9] = tested on: M. suipneumoniae J2206/183b; assay: in vitro MIC by serial dilution in Friis modified agarose medium; type: cell-based; settings: Mesomycoplasma hyopneumoniae, Table 3
Strep. pyogenes C 2761 = assay: MIC by serial dilution in nutrient agar with 5% chocolated horse blood; type: cell-based; settings: Streptococcus pyogenes, C2761; Table 1
Strep. agalactiae SPA1 = assay: MIC by agar dilution, veterinary bacteria; settings: Streptococcus agalactiae, SPA1, 24 h
M. hyosnoviae ATCC 25591 = assay: in vitro MIC by serial dilution in Friis modified agarose medium; type: cell-based; settings: Table 3
S. typhimurium S18 = assay: MIC by agar dilution, veterinary bacteria; settings: Salmonella enterica, 24 h
[10] = tested on: Staph. aureus 152 (pen sens); assay: MIC by agar dilution, veterinary bacteria; settings: Staphylococcus aureus, 24 h
[11] = tested on: M. suipneumoniae ATCC 25095; assay: in vitro MIC by serial dilution in Friis modified agarose medium; type: cell-based; settings: Mesomycoplasma hyopneumoniae, ATCC25095; Table 3
[12] = tested on: Neisseria catarrhalis 1502; assay: MIC by serial dilution in nutrient agar with 5% chocolated horse blood; type: cell-based; settings: Table 1, read-out: MIC
Bord. bronchiseptica B09 = assay: MIC by agar dilution, veterinary bacteria; settings: Bordetella bronchiseptica, B09, 24 h
[13] = tested on: Erysipelothrix rhusiopathiae NCTC 8163; assay: MIC by agar dilution, veterinary bacteria; settings: NCTC8163, 24 h
Past. multocida PA2 = assay: MIC by agar dilution, veterinary bacteria; settings: Pasteurella multocida, PA2, 24 h
M. siupneumoniae HK(2) = assay: in vitro MIC by serial dilution in Friis modified agarose medium; type: cell-based; settings: Table 3
Strep. uberis SPU1 = assay: MIC by agar dilution, veterinary bacteria; settings: Streptococcus uberis, SPU1, 24 h
Past. multocida PA1 = assay: MIC by agar dilution, veterinary bacteria; settings: Pasteurella multocida, PA1, 24 h
Staph. aureus Oxford = assay: MIC by serial dilution in nutrient agar with 5% chocolated horse blood; type: cell-based; settings: Staphylococcus aureus; Table 1
M. suipneumoniae Str. 11 = assay: in vitro MIC by serial dilution in Friis modified agarose medium; type: cell-based; settings: Mesomycoplasma hyopneumoniae, Table 3
Strep. pyogenes B 2788 = assay: MIC by serial dilution in nutrient agar with 5% chocolated horse blood; type: cell-based; settings: Streptococcus pyogenes, B2788; Table 1
Staph. aureus Russell = assay: as above; type: cell-based; settings: Staphylococcus aureus; Table 1

CC(=O)C=C(C)CC1OCC(CC2OC2C(C)C(C)O)C(O)C1O [Example 1, 1-[3R,4R-Dihydroxy-5S-(2S,3S-epoxy-5S-hydroxy-4S-methylhexyl)-2,3,5,6-tetrahydropyran-2-S-yl]-2-methylpent-2E-en-4-one]
MIC (Strep. faecalis): > 100 µg/mL
fraction unbound [1]: 0.852
MIC (M. gallisepticum S6): > 10 µg/mL
MIC (Ps. aeruginosa 10662): > 100 µg/mL
MIC [2]: 0.5 µg/mL (≈ 1.46 µM)
MIC (E. coli E1): > 80 µg/mL
MIC (M. suipneumoniae MS 16): 10 µg/mL (≈ 29.2 µM)
MIC (Bacillus subtilis 6633): 5 µg/mL (≈ 14.6 µM)
MIC [3]: 0.5 µg/mL (≈ 1.46 µM)
MIC (M. suipneumoniae LABER): 5 µg/mL (≈ 14.6 µM)
MIC (M. bovis NCTC 10131): 0.25 µg/mL (≈ 0.73 µM)
MIC (P. mirabilis 889): 50 µg/mL (≈ 146 µM)
MIC (M. suipneumoniae TAM 6N): > 10 µg/mL
MIC (K. aerogenes A): > 100 µg/mL
MIC (M.suipneumoniae NB12): > 10 µg/mL
MIC (M. pneumoniae ATCC 15492): > 10 µg/mL
MIC [4]: 5 µg/mL (≈ 14.6 µM)
MIC [5]: > 10 µg/mL
MIC (M. hyorhinis ATCC 23234): 10 µg/mL (≈ 29.2 µM)
MIC [6]: > 100 µg/mL
MIC [7]: 1 µg/mL (≈ 2.92 µM)
MIC [8]: > 80 µg/mL
MIC (Past. haemolytica PA5): 10 µg/mL (≈ 29.2 µM)
MIC [9]: > 10 µg/mL
MIC (Strep. pyogenes C 2761): 100 µg/mL (≈ 292 µM)
MIC (Strep. agalactiae SPA1): > 80 µg/mL
MIC (M. hyosnoviae ATCC 25591): 5 µg/mL (≈ 14.6 µM)
MIC (S. typhimurium S18): > 80 µg/mL
MIC [10]: 10 µg/mL (≈ 29.2 µM)
MIC [11]: 10 µg/mL (≈ 29.2 µM)
MIC [12]: 0.2 µg/mL (≈ 0.584 µM)
MIC (Bord. bronchiseptica B09): 20 µg/mL (≈ 58.4 µM)
MIC [13]: > 80 µg/mL
MIC (Past. multocida PA2): 5 µg/mL (≈ 14.6 µM)
MIC (M. siupneumoniae HK(2)): > 10 µg/mL
MIC (Strep. uberis SPU1): 20 µg/mL (≈ 58.4 µM)
MIC (Past. multocida PA1): 5 µg/mL (≈ 14.6 µM)
MIC (Staph. aureus Oxford): 1 µg/mL (≈ 2.92 µM)
MIC (M. suipneumoniae Str. 11): 5 µg/mL (≈ 14.6 µM)
MIC (Strep. pyogenes B 2788): 50 µg/mL (≈ 146 µM)
MIC (Staph. aureus Russell): 5 µg/mL (≈ 14.6 µM)
